Measurements published in paper doi:10.1101/2025.11.20.689572v1 (biorxiv, 2025).
Like-named read-outs stand apart in the source and are kept apart here.

What was measured:
D5 = molecular target: T1, D5 (Homo sapiens, UniProt P21918); assay: biochemical; parameters: species or system HEK293; PDSP competitive radioligand binding, membranes of transfected HEK293 cells, filtration, Ki by Cheng-Prusoff
T1 construct: gene DRD5
Experimental: (§1) Competitive radioligand binding assays were performed at the NIMH Psychoactive Drug Screening Program (PDSP) using membranes from transiently transfected HEK293 cells in 96-well format as described. Complete, target-specific protocols are available at the PDSP website (https://pdsp.unc.edu/pdspweb/?site=assays). Primary screenings were run at a single test concentration (10 µM) in quadruplicate. […] Secondary assays were conducted in triplicate using 12-point serial dilutions (0, 0.1, 0.3, 1, 3, 10, 30, 100, 300 nM; 1, 3, 10 µM). Assays were performed in a final volume of 125 µL per well in binding buffer, as detailed in the NIMH PDSP protocols (e.g., standard binding buffer: 50 mM Tris-HCl, pH 7.4, 10 mM MgCl2, 0.1 mM EDTA). Radioligand concentrations were chosen near the target-specific Kd. Total and nonspecific binding were defined in the absence and presence, respectively, of 10 µM reference ligand specific for each receptor. After 90 min incubation at room temperature, reactions were terminated by vacuum filtration onto 0.3% polyethyleneimine-pretreated UniFilter-96 GF/C Microplates using a FilterMate harvester, washed three times with ice-cold buffer (50 mM Tris HCl, pH 7.4), dried, treated with MicroScint-O [compound left out] scintillation cocktails, and counted on a MicroBeta counter. Equilibrium inhibition constants (Ki) were calculated from fitted IC50 values using the Cheng–Prusoff equation [14] with the assay-specific radioligand concentration and Kd. TABLE 1. […] Results represented mean ± SEM from a minimum of 3 independent assays, each in triplicate. ND=not determined.

α1B = molecular target: T2, α1B (Homo sapiens, UniProt P35368); assay: biochemical; parameters: species or system HEK293; PDSP competitive radioligand binding, membranes of transfected HEK293 cells, filtration, Ki by Cheng-Prusoff
T2 construct: gene ADRA1B
T2 sequence (P35368 whole entry): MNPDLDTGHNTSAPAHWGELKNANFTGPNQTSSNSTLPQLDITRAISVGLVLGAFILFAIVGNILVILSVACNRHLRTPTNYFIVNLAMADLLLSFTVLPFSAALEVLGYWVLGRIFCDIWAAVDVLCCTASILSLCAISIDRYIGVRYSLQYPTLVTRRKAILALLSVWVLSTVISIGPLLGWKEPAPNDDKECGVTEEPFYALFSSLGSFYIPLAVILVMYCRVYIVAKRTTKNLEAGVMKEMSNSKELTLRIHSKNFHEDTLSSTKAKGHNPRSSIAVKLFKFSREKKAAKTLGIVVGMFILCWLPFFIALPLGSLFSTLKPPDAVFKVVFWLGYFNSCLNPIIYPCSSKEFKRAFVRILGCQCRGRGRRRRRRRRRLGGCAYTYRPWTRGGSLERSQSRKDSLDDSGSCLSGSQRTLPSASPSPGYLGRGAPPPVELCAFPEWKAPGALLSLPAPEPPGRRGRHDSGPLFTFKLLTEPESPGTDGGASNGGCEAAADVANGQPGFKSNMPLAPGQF
Experimental: as §1

DRD2 = DRD2 (Homo sapiens, UniProt P14416); assay: biochemical; parameters: species or system HEK293; PDSP competitive radioligand binding, membranes of transfected HEK293 cells, filtration, Ki by Cheng-Prusoff
Sequence of DRD2 (P14416 whole entry): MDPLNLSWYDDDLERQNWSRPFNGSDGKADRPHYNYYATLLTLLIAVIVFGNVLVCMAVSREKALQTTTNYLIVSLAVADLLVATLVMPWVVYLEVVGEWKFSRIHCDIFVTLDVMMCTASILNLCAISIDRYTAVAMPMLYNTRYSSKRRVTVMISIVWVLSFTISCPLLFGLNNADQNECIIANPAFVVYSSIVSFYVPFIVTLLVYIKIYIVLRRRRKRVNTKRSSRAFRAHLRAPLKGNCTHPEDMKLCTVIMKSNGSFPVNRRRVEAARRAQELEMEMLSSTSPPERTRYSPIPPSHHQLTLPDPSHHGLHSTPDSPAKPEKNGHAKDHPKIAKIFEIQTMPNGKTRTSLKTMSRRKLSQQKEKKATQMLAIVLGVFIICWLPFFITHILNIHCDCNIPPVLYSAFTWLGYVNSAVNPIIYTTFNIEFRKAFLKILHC
Experimental: as §1

β1 = molecular target: T3, β1 (Homo sapiens, UniProt P08588); assay: biochemical; parameters: species or system HEK293; PDSP competitive radioligand binding, membranes of transfected HEK293 cells, filtration, Ki by Cheng-Prusoff
T3 construct: gene ADRB1
T3 sequence (P08588 whole entry): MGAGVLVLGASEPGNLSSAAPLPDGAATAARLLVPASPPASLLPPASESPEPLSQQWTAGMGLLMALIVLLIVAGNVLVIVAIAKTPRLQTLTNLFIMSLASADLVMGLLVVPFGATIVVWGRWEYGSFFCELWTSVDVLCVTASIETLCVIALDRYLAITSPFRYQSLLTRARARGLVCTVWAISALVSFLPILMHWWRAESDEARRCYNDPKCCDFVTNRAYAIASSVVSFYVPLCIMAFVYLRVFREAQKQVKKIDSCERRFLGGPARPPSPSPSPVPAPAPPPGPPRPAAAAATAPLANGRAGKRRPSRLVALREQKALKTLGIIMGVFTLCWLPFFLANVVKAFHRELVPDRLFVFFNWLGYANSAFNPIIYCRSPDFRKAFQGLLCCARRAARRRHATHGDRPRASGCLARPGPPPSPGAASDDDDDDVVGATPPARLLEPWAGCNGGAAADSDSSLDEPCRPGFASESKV
Experimental: as §1

α1D = molecular target: T4, α1D (Homo sapiens, UniProt P25100); assay: biochemical; parameters: species or system HEK293; PDSP competitive radioligand binding, membranes of transfected HEK293 cells, filtration, Ki by Cheng-Prusoff
T4 construct: gene ADRA1D
T4 sequence (P25100 whole entry): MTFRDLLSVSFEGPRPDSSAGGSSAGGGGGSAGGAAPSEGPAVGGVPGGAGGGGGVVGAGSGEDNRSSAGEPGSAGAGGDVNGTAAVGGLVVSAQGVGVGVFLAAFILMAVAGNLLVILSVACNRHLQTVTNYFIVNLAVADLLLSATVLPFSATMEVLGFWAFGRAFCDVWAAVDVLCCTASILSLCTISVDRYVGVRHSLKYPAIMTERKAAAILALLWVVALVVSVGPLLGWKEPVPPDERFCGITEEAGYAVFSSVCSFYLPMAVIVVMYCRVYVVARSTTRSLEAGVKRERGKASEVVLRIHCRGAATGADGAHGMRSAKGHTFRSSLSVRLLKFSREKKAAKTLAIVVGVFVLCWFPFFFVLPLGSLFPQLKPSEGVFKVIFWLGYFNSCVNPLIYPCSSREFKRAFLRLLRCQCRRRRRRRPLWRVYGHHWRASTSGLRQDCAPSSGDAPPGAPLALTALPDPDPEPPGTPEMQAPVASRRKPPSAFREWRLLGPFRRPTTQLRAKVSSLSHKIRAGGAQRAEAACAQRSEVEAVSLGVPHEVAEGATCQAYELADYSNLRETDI
Experimental: as §1

MOR = molecular target: T5, MOR (Homo sapiens, UniProt P35372); assay: biochemical; parameters: species or system HEK293; PDSP competitive radioligand binding, membranes of transfected HEK293 cells, filtration, Ki by Cheng-Prusoff
T5 construct: gene OPRM1
T5 sequence (P35372 whole entry): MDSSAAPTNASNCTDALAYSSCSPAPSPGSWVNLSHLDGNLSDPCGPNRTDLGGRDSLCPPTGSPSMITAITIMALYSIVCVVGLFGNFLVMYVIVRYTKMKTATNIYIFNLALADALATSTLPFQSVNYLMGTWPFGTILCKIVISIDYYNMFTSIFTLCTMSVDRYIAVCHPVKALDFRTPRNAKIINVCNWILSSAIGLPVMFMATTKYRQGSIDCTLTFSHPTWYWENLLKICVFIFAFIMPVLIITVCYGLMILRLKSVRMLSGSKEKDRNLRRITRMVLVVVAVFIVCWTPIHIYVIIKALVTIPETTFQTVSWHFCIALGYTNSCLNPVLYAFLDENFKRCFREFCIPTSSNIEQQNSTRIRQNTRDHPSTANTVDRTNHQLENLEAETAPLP
Experimental: as §1

DOR = molecular target: T6, DOR (Homo sapiens, UniProt P41143); assay: biochemical; parameters: species or system HEK293; PDSP competitive radioligand binding, membranes of transfected HEK293 cells, filtration, Ki by Cheng-Prusoff
T6 construct: gene OPRD1
T6 sequence (P41143 whole entry): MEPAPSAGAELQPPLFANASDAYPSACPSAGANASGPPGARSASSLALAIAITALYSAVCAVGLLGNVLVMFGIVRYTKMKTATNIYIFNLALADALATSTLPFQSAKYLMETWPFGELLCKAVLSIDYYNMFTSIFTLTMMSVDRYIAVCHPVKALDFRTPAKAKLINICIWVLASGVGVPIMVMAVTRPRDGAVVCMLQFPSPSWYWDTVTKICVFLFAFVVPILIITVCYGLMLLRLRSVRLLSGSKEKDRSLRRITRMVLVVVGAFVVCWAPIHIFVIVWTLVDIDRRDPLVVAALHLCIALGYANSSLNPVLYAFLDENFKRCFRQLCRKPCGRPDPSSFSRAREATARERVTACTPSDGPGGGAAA
Experimental: as §1

5-HT3 = molecular target: T7, 5-HT3 (Homo sapiens, UniProt P46098); assay: biochemical; parameters: species or system HEK293; PDSP competitive radioligand binding, membranes of transfected HEK293 cells, filtration, Ki by Cheng-Prusoff
T7 construct: gene HTR3A
T7 sequence (P46098 whole entry): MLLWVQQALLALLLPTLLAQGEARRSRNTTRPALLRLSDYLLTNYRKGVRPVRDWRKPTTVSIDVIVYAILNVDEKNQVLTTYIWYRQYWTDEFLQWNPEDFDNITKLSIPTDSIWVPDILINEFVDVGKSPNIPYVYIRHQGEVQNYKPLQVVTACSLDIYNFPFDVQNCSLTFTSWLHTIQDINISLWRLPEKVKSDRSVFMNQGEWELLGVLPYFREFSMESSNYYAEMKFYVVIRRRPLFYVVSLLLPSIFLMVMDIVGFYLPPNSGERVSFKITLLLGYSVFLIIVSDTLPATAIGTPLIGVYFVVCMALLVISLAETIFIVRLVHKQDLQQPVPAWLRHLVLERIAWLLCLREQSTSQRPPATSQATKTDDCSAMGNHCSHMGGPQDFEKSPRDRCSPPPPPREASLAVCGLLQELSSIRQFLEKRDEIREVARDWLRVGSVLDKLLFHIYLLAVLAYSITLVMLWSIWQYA
Experimental: as §1

CHRM2 = molecular target: T8, CHRM2 (Homo sapiens, UniProt P08172); assay: cell-based; parameters: species or system HEK293; TRUPATH BRET2 G-protein dissociation; antagonist mode against agonist EC80; conditions: agonist mode, % of control agonist
T8 sequence (P08172 1-466): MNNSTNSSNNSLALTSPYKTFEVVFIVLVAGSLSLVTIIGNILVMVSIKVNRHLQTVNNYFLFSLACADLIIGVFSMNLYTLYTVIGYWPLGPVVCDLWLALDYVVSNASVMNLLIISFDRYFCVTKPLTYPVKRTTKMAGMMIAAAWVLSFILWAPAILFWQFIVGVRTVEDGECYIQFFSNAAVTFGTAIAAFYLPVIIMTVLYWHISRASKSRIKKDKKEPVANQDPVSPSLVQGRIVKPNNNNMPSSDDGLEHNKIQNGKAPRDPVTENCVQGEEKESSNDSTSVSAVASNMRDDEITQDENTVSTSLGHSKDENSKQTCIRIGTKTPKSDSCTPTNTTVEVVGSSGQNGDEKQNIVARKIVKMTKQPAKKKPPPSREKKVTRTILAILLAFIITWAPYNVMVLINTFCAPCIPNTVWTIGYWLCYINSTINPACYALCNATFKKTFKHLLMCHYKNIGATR

[1] = read-out: N-desmethyl-xanomeline (PDSP) pKi (converted)

T1 sequence (P21918 whole entry): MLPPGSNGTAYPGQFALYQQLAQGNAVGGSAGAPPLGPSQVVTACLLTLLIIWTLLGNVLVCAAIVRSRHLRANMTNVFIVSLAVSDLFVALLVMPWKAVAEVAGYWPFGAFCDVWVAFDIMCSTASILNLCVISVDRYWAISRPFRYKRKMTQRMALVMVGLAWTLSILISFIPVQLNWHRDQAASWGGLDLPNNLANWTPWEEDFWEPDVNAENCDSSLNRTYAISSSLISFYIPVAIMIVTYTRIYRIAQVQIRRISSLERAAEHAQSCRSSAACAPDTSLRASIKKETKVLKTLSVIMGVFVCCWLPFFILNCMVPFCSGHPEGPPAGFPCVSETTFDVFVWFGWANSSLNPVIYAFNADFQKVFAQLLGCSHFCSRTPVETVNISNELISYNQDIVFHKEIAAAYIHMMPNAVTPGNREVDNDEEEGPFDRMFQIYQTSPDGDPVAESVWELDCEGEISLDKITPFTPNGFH

SMILES: CCCCCCOc1nsnc1C1=CCCNC1 [N-desmethylxanomeline]
- Ki (D5; [1]): > 10 µM
- Ki (α1B; [1]): 7.24 µM
- Ki (DRD2; [1]): 6.61 µM
- Ki (β1; [1]): 8.71 µM
- Ki (α1D; [1]): 3.31 µM
- Ki (MOR; [1]): 7.94 µM
- Ki (DOR; [1]): > 10 µM
- Ki (5-HT3; [1]): 2.4 µM
- Emax (CHRM2; HEK293, read-out: N-Desmethyl Xanomeline, Assay=Gi1): 87.3%
- Emax (CHRM2; HEK293, read-out: N-Desmethyl Xanomeline, Assay=Gi2): 88.1%
- Emax (CHRM2; HEK293, read-out: N-Desmethyl Xanomeline, Assay=Gi3): 65.4%
- Emax (CHRM2; HEK293, read-out: N-Desmethyl Xanomeline, Assay=GoA): 101%
- Emax (CHRM2; HEK293, read-out: N-Desmethyl Xanomeline, Assay=GoB): 95.1%
- Emax (CHRM2; HEK293, read-out: N-Desmethyl Xanomeline, Assay=Gz): 81.5%

SMILES: CCCCCCOc1nsnc1C1=CCCN(C)C1 [Xanomeline]
- Ki (D5): > 10 µM
- Ki (α1B): > 10 µM
- Ki (DRD2): > 10 µM
- Ki (β1): > 10 µM
- Ki (α1D): > 10 µM
- Ki (MOR): > 10 µM
- Ki (DOR): > 10 µM
- Ki (5-HT3): > 10 µM
- Emax (CHRM2; HEK293, read-out: Xanomeline, Assay=Gi1): 64.6%
- Emax (CHRM2; HEK293, read-out: Xanomeline, Assay=Gi2): 81.2%
- Emax (CHRM2; HEK293, read-out: Xanomeline, Assay=Gi3): 30.2%
- Emax (CHRM2; HEK293, read-out: Xanomeline, Assay=GoA): 99.1%
- Emax (CHRM2; HEK293, read-out: Xanomeline, Assay=GoB): 97.2%
- Emax (CHRM2; HEK293, read-out: Xanomeline, Assay=Gz): 60.4%
